Experimental data: ChEMBL document CHEMBL5050844 (2019)

How the values were obtained:
[1] = Induction of anti-CD3/CD28 antibodies-stimulated human T cell activation at 0.3 uM assessed fold increase in CD25 expression measured by ELISA assay; format: functional, T cell line
[2] = molecular target: E3 ubiquitin-protein ligase CBL-B (Homo sapiens, UniProt Q13191); experiment: Inhibition of N-terminal Avi-tagged human CBL-B (36 to 427 residues) incubated with 60 nM Src kinase for 1.5 hrs followed by incubation with fluorescently labeled UbcH5B-Ub for 1 hr and measured by TR-FRET assay; format: single protein
[3] = Induction of anti-CD3/CD28 antibodies-stimulated human T cell activation at 1 uM assessed fold increase in CD25 expression measured by ELISA assay; format: functional, T cell line
[4] = Induction of anti-CD3/CD28 antibodies-stimulated human T cell activation at 1 uM assessed fold increase in IL-2 secretion measured by ELISA assay; format: functional, T cell line
[5] = Induction of anti-CD3/CD28 antibodies-stimulated human T cell activation at 0.3 uM assessed fold increase in IL-2 secretion measured by ELISA assay; format: functional, T cell line
[6] = Induction of anti-CD3 antibodies-stimulated human T cell activation at 1 uM assessed fold increase in CD25 expression measured by ELISA assay; format: functional, T cell line; also: reference of the scale not given here
[7] = Induction of anti-CD3 antibodies-stimulated human T cell activation at 1 uM assessed fold increase in IL-2 secretion measured by ELISA assay; format: functional, T cell line; also: reference of the scale not given here

Chain of E3 ubiquitin-protein ligase CBL-B (Q13191 whole entry, the tested form may be a part): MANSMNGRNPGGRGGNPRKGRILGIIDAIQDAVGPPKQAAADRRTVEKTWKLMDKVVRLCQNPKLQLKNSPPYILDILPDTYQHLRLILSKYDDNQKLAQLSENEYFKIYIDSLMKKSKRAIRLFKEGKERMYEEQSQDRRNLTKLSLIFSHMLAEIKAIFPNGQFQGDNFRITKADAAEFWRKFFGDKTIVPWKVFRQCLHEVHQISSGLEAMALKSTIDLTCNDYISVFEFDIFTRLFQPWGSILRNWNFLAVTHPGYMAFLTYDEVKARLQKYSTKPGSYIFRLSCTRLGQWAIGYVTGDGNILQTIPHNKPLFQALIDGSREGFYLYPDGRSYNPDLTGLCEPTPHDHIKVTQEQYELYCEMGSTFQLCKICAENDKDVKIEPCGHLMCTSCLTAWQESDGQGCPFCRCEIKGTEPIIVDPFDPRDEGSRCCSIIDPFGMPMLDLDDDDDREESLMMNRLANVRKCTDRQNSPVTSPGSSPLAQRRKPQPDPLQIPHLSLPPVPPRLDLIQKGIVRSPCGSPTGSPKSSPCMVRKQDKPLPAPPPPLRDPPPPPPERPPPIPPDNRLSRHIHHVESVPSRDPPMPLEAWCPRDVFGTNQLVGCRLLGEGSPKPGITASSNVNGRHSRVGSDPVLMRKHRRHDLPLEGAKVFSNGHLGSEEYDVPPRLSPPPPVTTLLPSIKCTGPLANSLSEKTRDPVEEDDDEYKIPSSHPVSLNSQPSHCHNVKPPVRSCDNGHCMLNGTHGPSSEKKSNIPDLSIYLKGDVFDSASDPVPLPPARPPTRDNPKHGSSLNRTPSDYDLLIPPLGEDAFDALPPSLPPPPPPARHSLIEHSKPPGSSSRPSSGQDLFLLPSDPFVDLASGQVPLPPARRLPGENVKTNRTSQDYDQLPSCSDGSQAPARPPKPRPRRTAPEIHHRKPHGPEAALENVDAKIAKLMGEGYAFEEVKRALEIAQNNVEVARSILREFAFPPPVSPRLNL

In the case of `Cn1cnnc1[C@@H](F)C1(c2cccc(N3Cc4c(cc(CN5CCC6(CC6)C5)cc4C(F)(F)F)C3=O)c2)COC1`, the “fold change (FC)” value [1] is reported as 1.01, the IC50 [2] is reported as under 100 nM and the “fold change (FC)” value [3] is reported as 1.31. For the same compound, the “fold change (FC)” value [4] was “>=7.5”, the “fold change (FC)” value [5] was 5 and the “fold change (FC)” value [6] was “>=1.001”. For the same compound, the “fold change (FC)” value [7] was 0.101.

In the case of `CN1CC2CC1CN2c1cc2c(c(C(F)(F)F)c1)CN(c1cccc([C@@](C)(F)C(F)(F)c3nncn3C)c1)C2=O` (single isomer, unassigned; 562), the “fold change (FC)” value [1] is reported as 1.51, the IC50 [2] is reported as under 100 nM and the “fold change (FC)” value [3] is reported as 1.51. The “fold change (FC)” value [4] was “>=7.5”, the “fold change (FC)” value [5] was 5 and the “fold change (FC)” value [6] was “>=1.001”. For the same compound, the “fold change (FC)” value [7] was “>=0.201”.

For `Cn1cnnc1CC1(c2cccc(N3Cc4c(cc(CN5CC6CC6(C)C5)cc4C(F)(F)F)C3=O)c2)COC1` (centres undefined), the “fold change (FC)” value [1] was 1.01, the IC50 [2] was under 100 nM and the “fold change (FC)” value [3] was 1.01. For the same compound, the “fold change (FC)” value [4] was “>=7.5”, the “fold change (FC)” value [5] was “>=7.5” and the “fold change (FC)” value [6] was “>=1.001”. For the same compound, the “fold change (FC)” value [7] was “>=0.201”.

With `Cn1cnnc1CC1(c2cccc(N3Cc4c(cc(CN5CCCC(F)(F)C5)cc4C(F)(F)F)C3=O)c2)COC1` the “fold change (FC)” value [1] was 1.51, the IC50 [2] was under 100 nM and the “fold change (FC)” value [3] was 1.51. The “fold change (FC)” value [4] was “>=7.5”, the “fold change (FC)” value [5] was “>=7.5” and the “fold change (FC)” value [6] was “>=1.001”. For the same compound, the “fold change (FC)” value [7] was “>=0.201”.

For `Cn1cnnc1CC1(c2cccc(N3Cc4c(cc(CN5CCC(C#N)CC5)cc4C(F)(F)F)C3=O)c2)COC1`, the “fold change (FC)” value [1] was 1.31, the IC50 [2] was under 100 nM and the “fold change (FC)” value [3] was 1.31. The “fold change (FC)” value [4] was “>=7.5”, the “fold change (FC)” value [5] was 5 and the “fold change (FC)” value [6] was “>=1.001”. For the same compound, the “fold change (FC)” value [7] was “>=0.201”.

For `Cn1cnnc1C(F)(F)C1(c2cccc(N3Cc4c(cc(CN5CC[C@H](F)C5)cc4C(F)(F)F)C3=O)c2)CC1`, the “fold change (FC)” value [1] was 1.01, the IC50 [2] was under 100 nM and the “fold change (FC)” value [3] was 1.31. The “fold change (FC)” value [4] was “>=7.5”, the “fold change (FC)” value [5] was 5 and the “fold change (FC)” value [6] was “>=1.001”. For the same compound, the “fold change (FC)” value [7] was “>=0.201”.

In the case of `Cn1cnnc1[C@@H](F)C1(c2cccc(N3Cc4c(cc(CN5CCCCC5)cc4C(F)(F)F)C3=O)c2)COC1`, the “fold change (FC)” value [1] is reported as 1.31, the IC50 [2] is reported as under 100 nM and the “fold change (FC)” value [3] is reported as 1.51. For the same compound, the “fold change (FC)” value [4] was “>=7.5”, the “fold change (FC)” value [5] was “>=7.5” and the “fold change (FC)” value [6] was “>=1.001”. For the same compound, the “fold change (FC)” value [7] was 0.101.

In the case of `Cn1cnnc1CC1(c2cccc(N3Cc4c(cc(CN5[C@@H]6CC[C@H]5C[C@H](F)C6)cc4C(F)(F)F)C3=O)c2)COC1`, the “fold change (FC)” value [1] is reported as “>=1.76”, the IC50 [2] is reported as under 100 nM and the “fold change (FC)” value [3] is reported as “>=1.76”. For the same compound, the “fold change (FC)” value [4] was “>=7.5”, the “fold change (FC)” value [5] was 5 and the “fold change (FC)” value [6] was “>=1.001”. The “fold change (FC)” value [7] was “>=0.201”.

For `Cn1cnnc1CC1(c2cccc(N3Cc4c(cc(CN5Cc6ccccc6C5)cc4C(F)(F)F)C3=O)c2)COC1`, the “fold change (FC)” value [1] was 1.31, the IC50 [2] was under 100 nM and the “fold change (FC)” value [3] was 1.31. The “fold change (FC)” value [4] was “>=7.5”, the “fold change (FC)” value [5] was 5 and the “fold change (FC)” value [6] was “>=1.001”. The “fold change (FC)” value [7] was “>=0.201”.

In the case of `COc1cc(C(=O)Nc2cccc(C3(Cc4nncn4C)COC3)c2)nc(C2CC2)n1`, the “fold change (FC)” value [1] is reported as 1.01, the IC50 [2] is reported as under 100 nM and the “fold change (FC)” value [3] is reported as 1.31. The “fold change (FC)” value [4] was “>=7.5”, the “fold change (FC)” value [5] was 5 and the “fold change (FC)” value [6] was “>=1.001”. The “fold change (FC)” value [7] was 0.151.

In the case of `Cn1cnnc1CC1(c2cccc(N3Cc4c(cc(CN5CCCCC(F)C5)cc4C(F)(F)F)C3=O)c2)COC1` (centres undefined), the “fold change (FC)” value [1] is reported as 1.31, the IC50 [2] is reported as under 100 nM and the “fold change (FC)” value [3] is reported as 1.31. For the same compound, the “fold change (FC)” value [4] was “>=7.5”, the “fold change (FC)” value [5] was 5 and the “fold change (FC)” value [6] was “>=1.001”. For the same compound, the “fold change (FC)” value [7] was “>=0.201”.

With `C[C@@H](c1cc2c(c(C(F)(F)F)c1)CN(c1cccc(C3(Cc4nncn4C)COC3)c1)C2=O)N1CC(F)C1` the “fold change (FC)” value [1] was 1.31, the IC50 [2] was under 100 nM and the “fold change (FC)” value [3] was 1.51. The “fold change (FC)” value [4] was “>=7.5”, the “fold change (FC)” value [5] was 5 and the “fold change (FC)” value [6] was “>=1.001”. For the same compound, the “fold change (FC)” value [7] was 0.151.
